# Source: patent publication US20230312482A1, “SOS1 INHIBITORS” (Mirati Therapeutics, Inc., priority 2020, published 2023)
# pIC50, pKi: −log10 of the molar value.
# Key:
# [1] = test system: pERK in MKN1 cells or H358; assay: pERK inhibition in MKN1 or H358 cells (In-Cell Western); assay type: cell-based; settings: GAPDH normalized, 1 hour with compound, MKN1 or H358 cells (not specified which)
# Experimental: This Example illustrates that exemplary compounds of the present invention prevent KRas-mediated GTP nucleotide exchange mediated by SOS1 to inhibit KRas activity thereby inhibiting the generation of the downstream effector pERK.
# (§1) MKN1 cells (15,000/w) or H358 (30,000/w) were seeded in a black clear flat bottom 96-well cell culture plate (Corning, #3904) and incubated at 37° C. overnight. Assay day 1, cells were dosed with compounds of Formula (I) with a […] starting concentration and serially diluted 3x for a total of 9 concentrations. The cells were incubated for 1 hour with the compounds solubilized in DMSO at 37° C. Cells were immediately fixed by adding 50 µL of 4% formaldehyde to all wells in a fume hood and the plates were incubated for 20 minutes at room temperature. The formaldehyde was discarded from the plates and 150 µL of ice-cold methanol was added to permeabilize the cells for 10 minutes at -20° C. The methanol was discarded from each of the plates and any liquid remaining in the plate by tapping the plate against paper towels. Cells were then blocked with 150 µL of Odyssey blocking buffer (LI-COR Biosciences #927-50010) using 0.05% Tween for 1 hour at room temperature on a shaker. The blocking buffer was discarded and 50 µL of primary antibodies pERK (cell signaling Technology #9101L; Rabbit, 1:500) and GapDH (Millipore #MAB34; Mouse, 1:5000) diluted in Odyssey blocking buffer was added. The plates were incubated overnight at 4° C. on a shaker.
# On Assay day 2, the primary antibody solution was removed. Each plate was washed 3x times with 150 µL of 1x PBST (PBS + 0.1 % Tween 20) and incubated with 50 µL of secondary antibodies: Anti-Rabbit (LI-COR Biosciences #926-32211) and Anti-Mouse (LI-COR Biosciences #68070) at 1:800 dilution in Odyssey blocking buffer with Tween at room temperature on a shaker for 2 hours (protected from light). The secondary antibody solution as removed and each plate was washed with PBST 3x times. Any liquid remaining was discarded and the plate was imaged using the Licor Odyssey machine according to the manufacturer’s instruction, using a set focus length at 3 mm and both 800 nm and 700 nm filters. The GAPDH normalized scan values for each well were divided by the average of vehicle wells to get the % of pERK inhibition. The IC50 values were then calculated with the Graph pad Prism software.
# [2] = test system: pERK in NCI-H1435 cells; assay: pERK inhibition in NF-1 mutant cell line NCI-H1435; assay type: cell-based; settings: NCI-H1435 cells (NF-1 mutation), 1 hour with compound
# Text: This Example illustrates that exemplary compounds of the present invention prevent increased KRas-mediated GTP nucleotide exchange mediated by SOS1 in NF-1 mutant cell lines to inhibit KRas activity thereby inhibiting the generation of the downstream effector pERK.
# as §1, with “A cell line harboring activating mutation in NF-1 gene, NCI-H1435 (ATCC CRL-5870) and a cell line harboring activating mutation in NF-2 gene, NCI-H2052 (ATCC CRL-5915) were employed in these studies. NCI-H1435 and NCI-2052” for “MKN1”, “(15,000/w)” for “(15,000/w) or H358 (30,000/w)”
# On Assay day 2, the primary antibody solution was removed. […] The IC50 values were then calculated with the Graph pad Prism software.
# [3] = test system: pERK in NCI-H2052 cells; assay: pERK inhibition in NF-2 mutant cell line NCI-H2052; assay type: cell-based; settings: Homo sapiens, NCI-H2052 cells (NF-2 mutation), 1 hour with compound
# [4] = target: T1, recombinant human SOS1 polypeptide (amino acids 560-1049) (Homo sapiens, UniProt Q07889); assay: HTRF displacement assay, binding to SOS1; settings: HTRF displacement of Cy5 labelled tracer, 1-hour incubation, Morrison equation
# T1 construct: corresponding to amino acids 560-1049, expressed in E. Coli; His (N); TEV site (N); made in house; host or cells: E. coli
# T1 sequence (Q07889 560-1049): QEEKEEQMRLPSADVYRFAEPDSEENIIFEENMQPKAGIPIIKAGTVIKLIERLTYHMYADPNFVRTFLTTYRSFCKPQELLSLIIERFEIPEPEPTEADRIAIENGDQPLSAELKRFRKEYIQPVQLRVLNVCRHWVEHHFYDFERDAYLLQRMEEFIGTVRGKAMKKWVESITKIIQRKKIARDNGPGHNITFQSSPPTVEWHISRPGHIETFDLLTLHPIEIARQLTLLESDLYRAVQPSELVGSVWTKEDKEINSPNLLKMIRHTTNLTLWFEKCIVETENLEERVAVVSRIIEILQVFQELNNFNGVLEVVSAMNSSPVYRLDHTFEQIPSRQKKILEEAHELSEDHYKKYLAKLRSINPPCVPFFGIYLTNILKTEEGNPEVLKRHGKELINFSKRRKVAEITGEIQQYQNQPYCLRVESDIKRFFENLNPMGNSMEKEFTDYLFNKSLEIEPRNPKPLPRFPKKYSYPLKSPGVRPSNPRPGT
# Experimental: The ability of a compound of Formula (I) to bind to SOS1 was measured using a HTRF displacement assay. […] The HTRF ratio was calculated using the formula: [emission ⅟emission 2]*10000.
# Background signals were calculated from well with a 10 µM inhibitor, known to inhibit 100% at that concentration. The background subtracted signals were converted to % binding relative to DMSO controls. Data were analyzed using XLFIT software (IDBS) using a Morrison equation for competitive binding and Ki’s were generated for compound of Formula (I).
pIC50 [2],pIC50 [3],pKi [4],SMILES,pIC50 [1]
6.28,6.00,7.85,"CNCc1ccccc1-c1csc([C@@H](C)Nc2nn(C)c(=O)c3ccc(N4CCOCC4)cc23)c1 [Example 1-3, (R)methyl-4-((1-(4-(2-((methylamino)methyl)phenyl)thiophenyl)ethyl)amino)-6-morpholinophthalazin-1 (2H)-one]",6.58
–,–,–,Cc1c([C@@H](C)Nc2n[nH]c(=O)c3ccc(N4CCNCC4)cc23)cccc1C(F)(F)F [Example 1-6],6.94
–,–,–,Cc1c([C@@H](C)Nc2nn(C)c(=O)c3ccc(N4CCNCC4)cc23)cccc1C(F)(F)F [Example 1-5],6.06
5.96,< 5.00,7.22,Cc1c([C@@H](C)Nc2n[nH]c(=O)c3ccc(N4CCOCC4)cc23)cccc1C(F)(F)F [Example 1-1],5.88
–,–,5.52,Cc1c([C@@H](C)Nc2nn(C)c(=O)c3ccc(N4CCOCC4)cc23)cccc1C(F)(F)F [Example 1-4],–
6.51,6.12,8.00,CNCc1ccccc1-c1csc([C@@H](C)Nc2n[nH]c(=O)c3ccc(N4CCOCC4)cc23)c1 [Example 1-2],6.69
